The MIC is the lowest concentration found to suppress growth. The Kd is a measure of binding affinity in units of concentration. Read a low Kd as a tighter complex.

This is an account of results in publication PMC6078987, “Molecular insights into antibiotic resistance - how a binding protein traps albicidin” (Nature Communications, 2018).

In experiment [1] the test system is Staphylococcus aureus. Further details: method as in PMID 17074789, PMID 25504839. Particulars: cited from earlier work.
Experiment [2] relates to Pseudomonas aeruginosa DSM 117. Further details: method as in PMID 17074789, PMID 25504839. Particulars: cited from earlier work.
Experiment [3] addresses T1, AlbAS (Klebsiella oxytoca, UniProt Q8KRS7).
T1 sequence (Q8KRS7 1-221): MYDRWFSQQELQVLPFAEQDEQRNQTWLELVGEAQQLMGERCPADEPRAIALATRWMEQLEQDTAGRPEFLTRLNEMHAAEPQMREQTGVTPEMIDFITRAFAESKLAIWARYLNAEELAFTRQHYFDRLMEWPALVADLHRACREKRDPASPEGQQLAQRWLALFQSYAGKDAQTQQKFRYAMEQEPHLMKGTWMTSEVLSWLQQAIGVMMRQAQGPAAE
Nature of the experiment: Fluorescence quenching binding assay (tryptophan fluorescence) with AlbAS. On the procedure:
(§1) Fluorescence quenching measurements were performed by monitoring tryptophan fluorescence of AlbAS (20 nM), AlbAL (20 nM), AlbASNTD, and AlbASCTD (100 nM) on a FluoroMax 2 spectrometer from Horiba (Potsdam, Germany). The excitation wavelength was set to λexc = 280 nm. Emission spectra were recorded from λem = 290–450 nm with a scanning speed of 1 nm s^−1 and an integration time of 1 s. The excitation and emission slit widths were set to 8 and 4 nm, respectively. Proteins were solved in 50 mM sodium phosphate buffer with 150 mM NaCl and 0.01% DMSO at pH 6.8. All measurements were performed twice and the standard deviation is given for the Kd and the Hill factor n. Data evaluation was performed by integration of the emission band (318–410 nm for AlbAS, 316–412 nm for AlbAL, and 319–390 nm for AlbASNTD and AlbASCTD) for every titration step. The area under the curve (AUC) of the buffer blank (buffer with 0.01% DMSO) was subtracted from the measured titration data. The quenching factor was determined by subtraction of AUCs for each titration step from the AUC of the protein in the absence of ligand. For determination of the AlbAS– and AlbAL–albicidin Kd values, the data were fitted to Eq. (2).2 Y=Bmax[L]^n/Kdn+[L]^n where [L], n, and Bmax denote the total ligand concentration, the Hill coefficient, and the maximum binding capacity of the protein, respectively.
For the determination of the Kd for AlbAS–compound 7 the data were fitted to Eq. (3).3 Y=Pt+L+Kd-Pt+L+Kd^2-4PtL/2 where Pt is the total protein concentration.

In experiment [4] the target is AlbAL (Klebsiella oxytoca, UniProt A0A9P0U153). Nature of the experiment: CD-detected thermal unfolding of AlbAL. The format is binding. As to conditions: 1.5-fold ligand, 20 µM protein; AlbAL alone 71 °C. The procedure:
For determination of the melting temperature and information on protein-ligand stability, CD measurements were performed on a J-815 CD spectrometer (Jasco, Groß-Umstadt, Germany). Protein samples (2.0 mM for AlbAS and 0.2 mM for AlbAL) were saturated with 1.5-fold albicidin and diluted to a protein concentration of 20 μM in order to ensure a final DMSO content of only 0.05% for AlbAS and 0.5% for AlbAL. A volume of 250 μL of the reaction mixture was transferred into a quartz cuvette with 1 mm path length. Six far-UV spectra were accumulated in a wavelength range of 195–300 nm (203–300 nm for AlbAL) at three different temperatures (10, 21, and 90 °C) with a scanning speed of 50 nm s^−1. For evaluation of the spectra the measured buffer blank (50 mM sodium hydrogen phosphate and 100 mM NaCl, pH 6.8) was subtracted from the averaged spectra. The temperature curves were recorded from 10–90 °C in 0.5 °C min^−1 steps while monitoring the ellipticity at 215 nm (218 nm for ALbAL). […] The melting temperatures of AlbAS, AlbAS–albicidin, AlbAS–compound 5, AlbAS–compound 7, AlbAL, and AlbAL–albicidin were determined by nonlinear regression of the measured data using Eq. (1). […] The Tm was thus determined by fitting the second transition representing the stabilized domain/species. […]

Experiment [5] concerns Acinetobacter baumanii. Description: MIC assay, clinical isolates. In kind it is cell-based. Particulars: Acinetobacter baumannii. On the procedure:
(§2) The MIC assay was performed by Antiinfectives Intelligence GmbH (Rheinbach, Germany) using internationally standardized protocols and employing clinical isolates of K. oxytoca, K. pneumoniae, R. ornithologica, P. aeruginosa, A. baumannii and E. cloacae.

The subject of experiment [6] is Klebsiella pneumoniae. Description: MIC assay, clinical isolates. The format is cell-based. As to conditions: seven Klebsiella pneumoniae strains. The procedure: as §2
Experiment [7] deals with Enterobacter cloacae. Description: MIC assay, clinical isolates. The format is cell-based. The procedure:
as §2

For experiment [8], the system named is R. ornithinolytica. Description: MIC assay, clinical isolates. In kind it is cell-based. The procedure:
as §2

Experiment [9] relates to P. aeruginosa. Description: MIC assay, clinical isolates. In kind it is cell-based. As to conditions: Pseudomonas aeruginosa. The procedure: as §2
The subject of experiment [10] is K. oxytoca. Description: MIC assay, clinical isolates. Particulars: Klebsiella oxytoca; four K. oxytoca strains. The format is cell-based. On the procedure:
as §2

Experiment [11] addresses AlbASNTD (Klebsiella oxytoca, UniProt Q8KRS7). Description: Fluorescence quenching binding assay with AlbASNTD. Particulars: AlbASNTD 100 nM, n constrained to 1. The procedure: as §1

Values after ≈ are worked out from the molar mass of the structure shown. Values joined by “and” are separate entries in the source; they are usually repeats but may differ in a detail not shown here. Equal entries are not always repeated. A value given as a limit tells only on which side of the number the result lay.

Sequence of AlbAL (A0A9P0U153 entry or part of it): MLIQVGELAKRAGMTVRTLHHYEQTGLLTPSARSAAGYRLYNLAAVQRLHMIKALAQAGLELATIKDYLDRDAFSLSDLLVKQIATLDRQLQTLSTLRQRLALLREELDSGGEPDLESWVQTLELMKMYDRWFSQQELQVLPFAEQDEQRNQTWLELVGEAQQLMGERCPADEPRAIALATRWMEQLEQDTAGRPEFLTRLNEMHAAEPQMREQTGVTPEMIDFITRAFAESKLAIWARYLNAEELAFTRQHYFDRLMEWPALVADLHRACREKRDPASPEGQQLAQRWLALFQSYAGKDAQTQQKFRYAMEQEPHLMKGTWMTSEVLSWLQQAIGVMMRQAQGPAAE

For the molecule `COc1c(NC(=O)c2ccc(NC(=O)c3ccc(NC(=O)[C@H](CC#N)NC(=O)c4ccc(NC(=O)/C(C)=C/c5ccc(O)cc5)cc4)cc3)c(OC)c2O)ccc(C(=O)O)c1O` [albicidin], the MIC is 4.0 µg/mL (≈ 4.75 µM) in [1]; 1.0 µg/mL (≈ 1.19 µM) in experiment [2]; ≥ 64 µg/mL in experiment [5]; ≥ 64 µg/mL in [6]; ≥ 64 µg/mL in experiment [7]; ≥ 64 µg/mL in experiment [8]. The MIC in experiment [9] and in experiment [10] was ≥ 64 µg/mL each time. In experiment [3] (AlbAS 20 nM, fluorescence quenching), the “Hill coefficient, n” value is given as 3.0 ± 0.5. For the same molecule, the Kd in [3] (AlbAS 20 nM, fluorescence quenching, pH 6.8) is ≤ 5.6 nM and 5.6 nM; in experiment [11] it was 3400 ± 200 nM. Moreover, the “quenching of AlbAS emission” value in experiment [3] (maximal quenching by ligand) is 100%. Further, the “melting temperature Tm of AlbAL upon ligand binding” value in experiment [4] was 74 °C.
